Measurements: USRE32455E, “A-21978 antibiotics and process for their production” (priority 1985, dated 1987)
≈ marks a conversion by molar mass, not a printed value.

Experiments:
S. roseosporus = assay: Antibiotic sensitivity, sensitivity discs on seeded agar plates; format: cell-based, Streptomyces roseosporus; conditions: Conc./disc: erythromycin 15 μg, cephalothin 30 μg, lincomycin 2 μg, nystatin 100 units, polymyxin B 300 units, streptomycin 10 μg, tetracycline 30 μg, vancomycin "+μg"; note: key: +: sensitive (zones of inhibition); -: resistant (no zones of inhibition)
Experimental: Temperature range, NaCl tolerance, pH range, and antibiotic sensitivity were done using ISP #2 agar medium. The range of temperatures were: 25°, 28°, 30°, 34°, 37°, 40°, 45°, 50° and 55° C. […] These were incubated at 30° C. The pH range was measured by adjusting the agar from pH 3.0 to 11.0 at increments of 1.0 pH units, just prior to pouring. Antibiotic sensitivity was determined using sensitivity discs padded onto seeded agar plates.

A21978.6 = assay: as above; format: cell-based, Streptomyces roseosporus; conditions: Conc./disc: erythromycin 15 μg, cephalothin 30 μg, lincomycin 2 μg, nystatin 100 units, polymyxin B 300 units, streptomycin 10 μg, tetracycline 30 μg, vancomycin "+μg"
Experimental: Temperature range, NaCl tolerance, pH range, and antibiotic sensitivity were done using ISP #2 agar medium. The range of temperatures were: 25°, 28°, 30°, 34°, 37°, 40°, 45°, 50° and 55° C. NaCl tolerance was measured by adding NaCl to the agar to equal: 0, 1, 2, 3, 4, 5, 6, 8, 10 and 12%. These were incubated at 30° C. The pH range was measured by adjusting the agar from pH 3.0 to 11.0 at increments of 1.0 pH units, just prior to pouring. Antibiotic sensitivity was determined using sensitivity discs padded onto seeded agar plates.

Staphylococcus aureus = assay: MIC, agar dilution (Table XV); format: cell-based; conditions: Staphylococcus aureus, read-out: MIC
Description: ^1 MIC = minimum inhibitory concentration (μg/ml), agar dilution

Streptococcus pyogenes = assay: MIC, agar dilution (Table XV); format: cell-based; conditions: Streptococcus pyogenes, read-out: MIC
Streptococcus pneumoniae = assay: MIC, agar dilution (Table XV); format: cell-based; conditions: Streptococcus pneumoniae, read-out: MIC
[1] = system: Streptococcus faecalis (Guze); assay: Streptococcus faecalis descending rat pyelonephritis test; format: in vivo, rat (female albino, Cox-Wistar); conditions: 12.0 mg/kg × 7, subcutaneous
Experimental: In this test, the bacterial culture used was Streptococcus faecalis (Guze). The culture was grown on Trypticase soy agar (BBL), suspended in brain heart infusion broth (BBL), divided into 0.2-ml portions, and frozen in liquid nitrogen. Bacterial suspensions for rat inoculations were prepared daily by seeding a 50-ml flask of trypticase soy broth (BBL) from a frozen ampoule and growing the culture overnight at 37° C. on a shaker. The S. faecalis culture was diluted to 5×10^8 colony-forming units per ml. Test compounds were injected subcutaneously once daily for seven days. All compounds were suspended in 0.125% carboxymethylcellulose.
The experimental rat infections were accomplished by the following procedure. Female, random-bred albino rats (Cox-Wistar) weighing 190 to 210 g were anesthetized by intraperitoneal injection of 12 mg of sodium methohexital supplemented as necessary. The experimental pyelonephritis model was based on the studies of Guze and Beeson in which the left ureter was occluded for 20 min, followed by injection of 0.5 ml of the test organism in the femoral vein. Antimicrobial therapy was commenced 4 to 5 hrs postinfection. Four hours after the last treatment the rats were sacrificed, and the left kidney was removed and homogenized in a Duall grinder containing 9 ml of physiological saline. This represented a 10^-1 dilution of the kidney tissue. Additional 10-fold dilutions in saline were based on the anticipated bacterial cells present in the tissue homogenate. Finally, duplicate agar pour plates were made from several of these dilutions, and the plates were incubated overnight at 37° C. The therapeutic results were expressed in two ways: (i) the percentage of rats with kidney counts of less than 10^2 per g of kidney tissue, referred to as "cures," and (ii) the percentage of rats with at least a 4-log10 reduction in bacterial titer compared with infected control kidneys. Control rats were treated with 0.125% carboxymethylcellulose only. Viable cell counts in kidney tissue from control rats with S. faecalis ranged from 1.2×10^8 to 4.6×10^8 per g of homogenized tissue.

[2] = system: Streptococcus faecalis (Guze); assay: In vitro susceptibility (MIC) of the S. faecalis Guze strain; format: cell-based; conditions: Enterococcus faecalis
Throughout, for Antibiotic sensitivity: key: +: sensitive (zones of inhibition); -: resistant (no zones of inhibition).

Compound | Antibiotic sensitivity (S. roseosporus) | Antibiotic sensitivity (A21978.6) | further results
C[C@@H]1[C@H](O)[C@@H](C)/C=C/C=C/CC/C=C/C=C/C=C/C=C/C(O[C@H]2O[C@H](C)[C@@H](O)[C@H](N)[C@@H]2O)CC2O[C@](O)(CC(O)C(O)CCC(O)CC(O)CC(O)CC(=O)O[C@H]1C)CC(O)C2C(=O)O (stereo partly shown) [Nystatin] | - | - | 
Polymyxin B | - | + | 
CC[C@H]1OC(=O)[C@H](C)[C@@H](O[C@H]2C[C@@](C)(OC)[C@@H](O)[C@H](C)O2)[C@H](C)[C@@H](O[C@@H]2O[C@H](C)C[C@H](N(C)C)[C@H]2O)[C@](C)(O)C[C@@H](C)C(=O)[C@H](C)[C@@H](O)[C@]1(C)O [Erythromycin, reference compound] | + | + | MIC (Staphylococcus aureus): 0.13 µg/mL (≈ 0.177 µM); MIC (Streptococcus pyogenes): 0.13 µg/mL (≈ 0.177 µM); MIC (Streptococcus pneumoniae): 0.5 µg/mL (≈ 0.681 µM)
CN(C)C1C(=O)C(C(N)=O)=C(O)C2(O)C(=O)C3=C(O)c4c(O)cccc4C(C)(O)C3CC12 (stereo not shown) [Tetracycline] | + | + | 
CC(=O)OCC1=C(C(=O)O)N2C(=O)[C@@H](NC(=O)Cc3cccs3)[C@H]2SC1 [Cephalothin] | + | + | 
[H]/N=C(/N)N[C@H]1[C@H](O)[C@@H](O)[C@H](O[C@@H]2O[C@@H](C)[C@](O)(C=O)[C@H]2O[C@@H]2O[C@@H](CO)[C@H](O)[C@@H](O)[C@@H]2NC)[C@@H](N/C(N)=N\[H])[C@@H]1O [Streptomycin] | + | + | 
CCC[C@@H]1C[C@@H](C(=O)N[C@@H]([C@H]2O[C@H](SC)[C@H](O)[C@@H](O)[C@H]2O)[C@@H](C)O)N(C)C1 [Lincomycin] | - | - | 
CN[C@H](CC(C)C)C(=O)N[C@H]1C(=O)N[C@@H](CC(N)=O)C(=O)N[C@H]2C(=O)N[C@H]3C(=O)N[C@H](C(=O)N[C@H](C(=O)O)c4cc(O)cc(O)c4-c4cc3ccc4O)[C@H](O)c3ccc(c(Cl)c3)Oc3cc2cc(c3O[C@@H]2O[C@H](CO)[C@@H](O)[C@H](O)[C@H]2O[C@H]2C[C@](C)(N)[C@H](O)[C@H](C)O2)Oc2ccc(cc2Cl)[C@H]1O [Vancomycin, reference compound] | + | + | Percent of Rats Cured [1]: 33%; Percent of Rats with a 4-Log Titer Decrease [1]: 55%; MIC [2]: 1 µg/mL (≈ 0.69 µM)
